Measurements reported in patent EP4810040A2, “INHIBITORS OF APOL1 AND METHODS OF USING SAME” (priority 2020, dated 2022).
Where two headings read alike, the source gives them in different places.

Target: T1, APOL1 G1 (Homo sapiens, UniProt O14791, I384M/S342G)
T1 sequence (O14791 28-398 S342G/I384M): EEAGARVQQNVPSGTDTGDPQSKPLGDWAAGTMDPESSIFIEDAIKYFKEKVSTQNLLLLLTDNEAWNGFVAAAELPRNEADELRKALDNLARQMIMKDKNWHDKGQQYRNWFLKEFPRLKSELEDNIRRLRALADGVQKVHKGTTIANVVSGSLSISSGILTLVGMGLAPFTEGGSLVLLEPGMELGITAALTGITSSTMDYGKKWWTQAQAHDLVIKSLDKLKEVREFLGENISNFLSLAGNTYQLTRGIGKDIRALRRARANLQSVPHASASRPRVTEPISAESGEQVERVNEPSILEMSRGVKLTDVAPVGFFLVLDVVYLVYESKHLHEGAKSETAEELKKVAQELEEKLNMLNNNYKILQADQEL
Assay: MultiTox-Fluor Multiplex Cytotoxicity Assay, tet-inducible APOL1 G1 T-REx-HEK293 cells
Assay type: cell-based
Design: expressed in transfected cells; host or cells: T-REx HEK293, clone G1 DC3.25 (pAAVS1-Puro-APOL1 G1)
Conditions: for IC90: read-out: Multi-Tox Assay IC90; for Emax: read-out: Multi-Tox Assay Max Activity (%)
In short: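 T-REx-HEK293 cells carrying tet-inducible APOL1 G1 induced with 50 ng/mL tet alongside compound (top 10 µM, 10-point 3-fold, duplicate) for 24 h at 37 °C. MultiTox-Fluor dead/live protease fluorescence ratio read after 30 min; normalized to no-tet (100% viability) and tet-treated (0%) controls, then curve-fitted.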

[1] = HEK293, Multi-Tox Assay, APOL1 variant (G0/G1/G2) of the HEK293 cells not given
[2] = Multi-Tox Assay, APOL1 variant not given
[3] = Multi-Tox Assay, APOL1 variant (G0/G1/G2) not stated in Table 46

| SMILES | IC90 [1] | Multi-Tox Assay Max Activity (%) [2] | Emax [2] | further results |
| --- | --- | --- | --- | --- |
| Cc1nn(CCO)cc1[C@@H]1C[C@]2(C[C@H](C)N1)OCCc1cc(Cl)sc12 (racemic) [Compound 158] | > 0.5 µM | 90.4% | – | – |
| C[C@H]1C[C@@]2(C[C@@H](c3cn(CCc4ccncn4)nn3)N1)OC[C@@H](O)c1cc(Cl)sc12 [Compound 262] | 0.05 to 0.5 µM | – | – | – |
| Cn1cc([C@@H]2C[C@]3(C[C@H](C4CC4)N2)OCCc2cc(Cl)sc23)nn1 [Compound 381, (2'R,6'S,7S)-2-chloro-2'-cyclopropyl-6'-(1-methyltriazol-4-yl)spiro[4,5-dihydrothieno[2,3-c]pyran-7,4'-piperidine]] | – | – | – | IC90 [3]: < 0.05 µM; Emax (Multi-Tox Assay, APOL1 variant not stated in Table 46): 100% |
| COc1nn(C)cc1[C@@H]1C[C@]2(C[C@H](C)N1)OCCc1cc(Cl)sc12 (racemic) [Compound 154] | > 0.5 µM | 94.0% | – | – |
| C[C@H]1C[C@@]2(C[C@@H](c3cccn4ccnc34)N1)OCCc1cc(Cl)sc12 [Compound 143] | 0.05 to 0.5 µM | 98.0% | – | – |
| C[C@H]1C[C@@]2(C[C@@H](c3cnc(NC(C)(C)CO)nc3)N1)OCCc1cc(Cl)sc12 (racemic) [Compound 95] | < 0.05 µM | – | 99.8% | – |
| C[C@H]1C[C@@]2(C[C@@H](c3cnc(-c4ccccc4)o3)N1)OCCc1cc(Cl)sc12 (racemic) [Compound 70] | < 0.05 µM | – | 99.3% | – |
| CC(CO)Cn1cc([C@@H]2C[C@]3(C[C@H](C)N2)OCC(F)(F)c2cc(Cl)sc23)nn1 (stereo partly drawn) [Compound 370] | – | – | – | IC90 [3]: 0.05 to 0.5 µM; IC50 (Multi-Tox Assay, IP50 = IC50 for cell proliferation, APOL1 variant not stated in Table 46): 0.05 to 0.5 µM |
| C[C@H]1CC2(C[C@@H](c3cn(C)nn3)N1)OCC(C)(C)c1sc(C(F)(F)F)cc12 (single isomer, unassigned) [Compound 16] | 0.05 to 0.5 µM | 100.0% | – | – |
| Cc1c(Cn2cc([C@@H]3C[C@]4(C[C@H](C)N3)OC[C@@H](O)c3cc(Cl)sc34)nn2)cnn1C [Compound 285] | 0.05 to 0.5 µM | 98.0% | – | – |
| C[C@H]1C[C@@]2(C[C@@H](c3cn(Cc4ncnc5[nH]ccc45)nn3)N1)OC[C@@H](O)c1cc(Cl)sc12 [Compound 234] | 0.05 to 0.5 µM | 100.0% | – | – |
| C[C@H]1C[C@@]2(C[C@@H](c3cn(Cc4ccc(O)cc4)nn3)N1)OC[C@@H](O)c1cc(Cl)sc12 [Compound 259] | 0.05 to 0.5 µM | 100.0% | – | – |
| Cn1cc(C2CC3(CC(C4CCC4)N2)OCCc2cc(C(F)(F)F)sc23)nn1 (stereo not drawn) [Compound 192] | 0.05 to 0.5 µM | – | 99% | – |
| Cc1nccc([C@@H]2C[C@]3(C[C@H](C)N2)OCCc2cc(Cl)sc23)n1 (racemic) [Compound 116] | 0.05 to 0.5 µM | 99.4% | – | – |
| C[C@H]1C[C@@]2(C[C@@H](c3cn(CCC(C)(C)O)nn3)N1)OC[C@@H](O)c1cc(Cl)sc12 [Compound 252] | 0.05 to 0.5 µM | 100.0% | – | – |
| C[C@H]1C[C@@]2(C[C@@H](c3cn(Cc4cccc(O)c4)nn3)N1)OC[C@@H](O)c1cc(Cl)sc12 [Compound 279] | 0.05 to 0.5 µM | 97.0% | – | – |
| C[C@@H]1CC2(C[C@H](C)N1)OCCc1sc(C(F)(F)F)cc12 (single isomer, unassigned) [Compound 196] | 0.05 to 0.5 µM | – | 99% | – |
| C[C@H]1C[C@@]2(C[C@@H](c3cn(C)nn3)N1)OC[C@@H](O)c1cc(C(F)(F)F)sc12 [Compound 181, (2S,4S,4'S,6S)-2-methyl-6-(1-methyl-1H-1,2,3-triazol-4-yl)-2'-(trifluoromethyl)-4',5'-dihydrospiro[piperidine-4, 7'-thieno[2,3-c]pyran]-4'-ol] | < 0.05 µM | – | 99.8% | – |
| Cc1cccnc1[C@@H]1C[C@]2(C[C@H](C)N1)OCCc1cc(Cl)sc12 (racemic) [Compound 167] | > 0.5 µM | 89.7% | – | – |
| C[C@H]1C[C@@]2(C[C@@H](c3cccc(S(C)(=O)=O)c3)N1)OCCc1cc(Cl)sc12 (racemic) [Compound 146] | 0.05 to 0.5 µM | 97.0% | – | – |

| SMILES | IC90 [1] | Multi-Tox Assay Max Activity (%) [2] | Emax [2] | further results |
| --- | --- | --- | --- | --- |
| CC(C)C(=O)NCCn1cc([C@@H]2C[C@]3(C[C@H](C)N2)OCC(F)(F)c2cc(Cl)sc23)nn1 [Compound 345] | 0.05 to 0.5 µM | – | – | – |
| C[C@H]1C[C@@]2(C[C@@H](c3cnn(-c4ccccc4)c3)N1)OCCc1cc(Cl)sc12 (racemic) [Compound 65] | < 0.05 µM | – | 99.5% | – |
| C[C@H]1C[C@@]2(C[C@@H](c3cnc(C4CC4)nc3)N1)OCCc1cc(Cl)sc12 (racemic) [Compound 52] | < 0.05 µM | 99.7% | – | – |
| CC(CO)CCn1cc([C@@H]2C[C@]3(C[C@H](C)N2)OCC(F)(F)c2cc(Cl)sc23)nn1 (stereo partly drawn) [Compound 306] | > 0.5 µM | – | – | – |
| C[C@H]1CC2(C[C@@H](c3cn(C)nn3)N1)OCC(C)(C)c1sc(Cl)cc12 (single isomer, unassigned) [Compound 15] | < 0.05 µM | – | – | – |
| CC1CC2(CC(c3cnn(C)n3)N1)OCCc1cc(Cl)sc12 (stereo not drawn) [Compound 38] | < 0.05 µM | – | 100% | – |
| Cc1cc(O)ncc1[C@@H]1C[C@]2(C[C@H](C)N1)OCCc1cc(Cl)sc12 (racemic) [Compound 125] | 0.05 to 0.5 µM | 99.7% | – | – |
| CC1CC2(CC(c3cccnc3)N1)OCCc1cc(Cl)sc12 (racemic) [Compound 20, 2-chloro-2'-methyl-6'-(3-pyridyl)spiro[4,5-dihydrothieno[2,3-c]pyran-7, 4'-piperidine]] | < 0.05 µM | – | 99.4% | – |
| C[C@H]1C[C@@]2(C[C@@H](c3cn(C)nn3)N1)OC[C@H](O)c1cc(C(F)(F)F)sc12 [Compound 180] | < 0.05 µM | – | 99.8% | – |
| CCc1cc2c(s1)C1(CC(C)NC(c3cn(C)nn3)C1)OCC2 (single isomer, unassigned) [Compound 6] | < 0.05 µM | – | 99.7% | – |
| C#C[C@@H]1C[C@]2(C[C@H](C)N1)OC[C@@H](O)c1cc(Cl)sc12 [Compound 222, (2'S,4S,6'S,7S)-2-chloro-2'-ethynyl-6'-methyl-spiro[4,5-dihydrothieno[2,3-c]pyran-7,4'-piperidine]-4-ol] | 0.05 to 0.5 µM | – | 100% | – |
| C[C@H]1C[C@@]2(C[C@@H](c3cn(CC(O)c4ccccc4)nn3)N1)OCC(F)(F)c1cc(Cl)sc12 (stereo partly drawn) [Compound 322] | 0.05 to 0.5 µM | 97.0% | – | – |
| C[C@H]1C[C@@]2(C[C@@H](c3cn(Cc4ccc(O)nc4)nn3)N1)OCC(F)(F)c1cc(Cl)sc12 [Compound 316] | > 0.5 µM | 95.0% | – | – |
| CC(C)Cc1cc2c(s1)C1(C[C@@H](C)N[C@@H](C)C1)OCC2 (single isomer, unassigned) [Compound 201] | > 0.5 µM | – | 95% | – |
| Cc1c(Cn2cc([C@@H]3C[C@]4(C[C@H](C)N3)OCC(F)(F)c3cc(Cl)sc34)nn2)cnn1C [Compound 326] | 0.05 to 0.5 µM | 97.0% | – | – |
| Cc1nc([C@@H]2C[C@]3(C[C@H](C)N2)OCCc2cc(Cl)sc23)cn1C (racemic) [Compound 159] | > 0.5 µM | 92.2% | – | – |
| CCc1cc([C@@H]2C[C@]3(C[C@H](C)N2)OCCc2cc(Cl)sc23)on1 [Compound 91] | < 0.05 µM | – | 100% | – |
| C[C@H]1C[C@@]2(C[C@@H](c3cn(Cc4ccc(OC5CCOCC5)cc4)nn3)N1)OCC(F)(F)c1cc(Cl)sc12 [Compound 308] | > 0.5 µM | 95.0% | – | – |
| C[C@H]1C[C@@]2(C[C@@H](c3cn(CC4(CO)CCOCC4)nn3)N1)OC[C@@H](O)c1cc(Cl)sc12 [Compound 240] | > 0.5 µM | 95.0% | – | – |
| C[C@H]1C[C@@]2(C[C@@H](c3cn(CCC4CCCOC4)nn3)N1)OCC(F)(F)c1cc(Cl)sc12 (stereo partly drawn) [Compound 314] | < 0.05 µM | – | – | – |
